Biological target: acetylcholinesterase (T.californica) (Tetronarce californica, UniProt P04058)
Assay: Antibody modulation of inhibition by Compound II and reversal by cholylglycine
Assay type: biochemical
Protocol: Antibody against cholylglycine-bovine serum albumin (BSA) conjugates were raised in rabbits, and the rabbit serum obtained by conventional techniques. The anti-cholylglycine IgG fraction was obtained by ammonium sulfate fractionation and ion exchange chromatography. The concentration of antibody was not determined but was adjusted from a pooled fraction from the ion exchange column to give best modulation of inhibition by Compound II. […] The experiment is carried out on an ABA-100® model bichromatic analyzer (Abbott Laboratories, North Chicago, Illinois) and the following settings were used:
The substrate solution and buffer are placed in the primary syringe of the dilution plate. The buffer is pH 7.0, 0.1 M potassium phosphate, 0.1% gelatin. The substrate is acetylthiocholine at 5.0×10^-4 M with DTNB at 1.6×10^-4 M as indicator. […] In all cases, the acetylcholinesterase (T.californica) concentration is approximately 2×10^-10 M and Compound II, the inhibitor, concentration is 10×10^-7 M. Where cholylglycine is added, the concentration in the sample cup is 10^-3 M. The sample cup contains pH 7.0, 0.1 M potassium phosphate buffer containing 0.1% gelatin plus the indicated components in the table: […]

[1] = enzyme + the substance only, T = 0 (E alone .246)
[2] = enzyme + the substance only, T = 13 min (E alone .237)
[3] = enzyme + the substance only, T = 25 min (E alone .234)
[4] = enzyme + the substance only, T = 36 min (E alone .230)

acetylcholinesterase (T.californica), sequence (P04058 22-564): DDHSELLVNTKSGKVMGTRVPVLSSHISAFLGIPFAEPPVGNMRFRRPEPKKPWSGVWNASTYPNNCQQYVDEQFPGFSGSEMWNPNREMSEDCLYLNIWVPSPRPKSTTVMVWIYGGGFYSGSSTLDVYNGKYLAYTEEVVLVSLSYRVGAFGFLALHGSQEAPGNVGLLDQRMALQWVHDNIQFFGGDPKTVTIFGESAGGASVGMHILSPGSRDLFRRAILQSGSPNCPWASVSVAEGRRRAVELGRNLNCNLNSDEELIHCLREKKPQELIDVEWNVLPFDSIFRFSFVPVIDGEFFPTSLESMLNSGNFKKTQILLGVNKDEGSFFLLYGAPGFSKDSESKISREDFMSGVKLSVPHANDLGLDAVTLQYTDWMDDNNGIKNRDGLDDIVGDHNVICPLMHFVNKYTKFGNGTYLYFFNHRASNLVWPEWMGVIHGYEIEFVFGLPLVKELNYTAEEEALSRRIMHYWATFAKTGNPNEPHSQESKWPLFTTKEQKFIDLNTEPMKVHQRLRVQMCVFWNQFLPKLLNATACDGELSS

## C[C@H](CCC(=O)NCC(=O)O)[C@H]1CC[C@H]2[C@@H]3[C@H](O)C[C@@H]4C[C@H](O)CC[C@]4(C)[C@H]3C[C@H](O)[C@]12C [CG, cholylglycine, reference compound]
E + Ab + CG (10^-3 M), no inhibitor, T = 0
  Change in Ad in 5 Minutes: .225 Ad/5 Min.
E + Ab + CG (10^-3 M), no inhibitor, T = 13 min
  Change in Ad in 5 Minutes: .223 Ad/5 Min.
E + Ab + CG (10^-3 M), no inhibitor, T = 25 min
  Change in Ad in 5 Minutes: .216 Ad/5 Min.
E + Ab + CG (10^-3 M), no inhibitor, T = 36 min
  Change in Ad in 5 Minutes: .207 Ad/5 Min.
[1]
  Change in Ad in 5 Minutes: .236 Ad/5 Min.
[2]
  Change in Ad in 5 Minutes: .228 Ad/5 Min.
[3]
  Change in Ad in 5 Minutes: .220 Ad/5 Min.
[4]
  Change in Ad in 5 Minutes: .211 Ad/5 Min.

## CCOP(=O)(OCCCCCNC(=O)CCCCCNC(=O)CC[C@@H](C)[C@H]1CC[C@H]2[C@@H]3[C@H](O)C[C@@H]4C[C@H](O[Si](C)(C)C(C)(C)C)CC[C@]4(C)[C@H]3C[C@H](O)[C@]12C)Oc1ccc2ccc[n+](C)c2c1 (stereo partly drawn) [Compound II]
E + I + Ab + CG (10^-3 M), T = 0
  Change in Ad in 5 Minutes: .224 Ad/5 Min.
E + I + Ab + CG (10^-3 M), T = 13 min
  Change in Ad in 5 Minutes: .078 Ad/5 Min.
E + I + Ab + CG (10^-3 M), T = 25 min
  Change in Ad in 5 Minutes: .032 Ad/5 Min.
E + I + Ab + CG (10^-3 M), T = 36 min
  Change in Ad in 5 Minutes: .017 Ad/5 Min.
E + I + Ab, T = 0
  Change in Ad in 5 Minutes: .235 Ad/5 Min.
E + I + Ab, T = 13 min
  Change in Ad in 5 Minutes: .192 Ad/5 Min.
E + I + Ab, T = 25 min
  Change in Ad in 5 Minutes: .164 Ad/5 Min.
E + I + Ab, T = 36 min
  Change in Ad in 5 Minutes: .147 Ad/5 Min.
E + I + CG (10^-3 M), T = 0
  Change in Ad in 5 Minutes: .224 Ad/5 Min.
E + I + CG (10^-3 M), T = 13 min
  Change in Ad in 5 Minutes: .062 Ad/5 Min.
E + I + CG (10^-3 M), T = 25 min
  Change in Ad in 5 Minutes: .022 Ad/5 Min.
E + I + CG (10^-3 M), T = 36 min
  Change in Ad in 5 Minutes: .013 Ad/5 Min.
[1]
  Change in Ad in 5 Minutes: .226 Ad/5 Min.
[2]
  Change in Ad in 5 Minutes: .072 Ad/5 Min.
[3]
  Change in Ad in 5 Minutes: .025 Ad/5 Min.
[4]
  Change in Ad in 5 Minutes: .013 Ad/5 Min.
